Experimental findings from article PMC11822212, “High-throughput screening identifies Aurora kinase B as a critical therapeutic target for Merkel cell carcinoma” (Nature Communications, 2025) are described below.

The data set in a line: qHTS cell viability (CellTiter-Glo, 72 h; primary screen), control cell line. The data set is classed as cell-based, human. To be noted: human, HACAT, read-out: Percent viability.

Each structure is given as a SMILES string.

As usually defined, the viability is a read-out of living cells in per cent, often relative to untreated cells. Turning to `COCCn1c2c([n+](Cc3cnccn3)c1C)C(=O)c1ccccc1C2=O` [sepantronium bromide, reference compound], the viability at 72 h, 15.4 µM (HACAT cells (control cell line), Log (M) -4.81358) stood at 21.2%. The viability at 72 h, 5.12 µM (HACAT cells (control cell line), Log (M) -5.2907) worked out at 18.9%. Moreover, for the setting “HACAT cells (control cell line), Log (M) -5.76782”, the viability at 72 h, 1.71 µM was 48.7%. For the same compound, the viability at 72 h, 0.569 µM (HACAT cells (control cell line), Log (M) -6.24494) stood at 44.2%. Moreover, where the note is “HACAT cells (control cell line), Log (M) -6.72207”, the viability at 72 h, 190 nM came out at 35.1%. Besides, the viability at 72 h, 63.2 nM (HACAT cells (control cell line), Log (M) -7.19919) stood at 66.6%. Further, the viability at 72 h, 46.1 µM (HACAT cells, Log (M) -4.33646) was determined as 21.2%. For the same compound, under “HACAT cells, Log (M) -7.67631”, the viability at 72 h, 21.1 nM was 100%. Also, the viability at 72 h, 7.02 nM (HACAT cells, Log (M) -8.15343) was determined as 98.2%. Also, the viability at 72 h, 2.34 nM (HACAT cells, Log (M) -8.63055) stood at 88.9%. Besides, the viability at 72 h, 0.78 nM (HACAT cells, Log (M) -9.10767) was found to be 104%.
